According to PMC6611227 (Frontiers in Microbiology, 2019):

Biological target: T1, StDHODH (dihydroorotate dehydrogenase) (Solanum tuberosum, UniProt M1BCR0, I273V/I299V/P120T/P359Q)
T1 construct: gene LOC102578881
T1 sequence (M1BCR0 70-460 P120T/I273V/I299V/P359Q): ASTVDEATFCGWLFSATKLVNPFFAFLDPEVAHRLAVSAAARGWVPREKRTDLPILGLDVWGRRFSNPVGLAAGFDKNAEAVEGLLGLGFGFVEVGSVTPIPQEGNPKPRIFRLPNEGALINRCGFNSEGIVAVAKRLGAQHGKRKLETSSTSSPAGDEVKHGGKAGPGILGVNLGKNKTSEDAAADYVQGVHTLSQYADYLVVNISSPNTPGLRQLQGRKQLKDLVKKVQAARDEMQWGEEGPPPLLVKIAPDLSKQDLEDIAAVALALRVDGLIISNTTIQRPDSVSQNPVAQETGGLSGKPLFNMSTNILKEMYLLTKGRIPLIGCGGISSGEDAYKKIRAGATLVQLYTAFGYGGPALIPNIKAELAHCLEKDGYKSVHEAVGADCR
Assay: biochemical
Conditions: read-out: Activity % StDHODH

Compound: COc1c(-c2ccccc2)ccc(NC(=O)C(C#N)=C(C)O)c1Cl [compound 19, N-(3-chloro-2-methoxybiphenyl-4-yl)-2-cyano-3-hydroxybut-2-enamide]
- activity at 500 µM: 0%
